# Test results as given in ChEMBL document CHEMBL4425084, “Development of Heat Shock Protein (Hsp90) Inhibitors To Combat Resistance to Tyrosine Kinase Inhibitors through Hsp90-Kinase Interactions” (J Med Chem, 2016).
# How the values were obtained:
# [1] = Cytotoxicity against HGF-induced erlotinib-resistant human Ma1 cells assessed as inhibition of cell growth after 72 hrs by MTT assay; format: functional, cell-based
# PC-9 = assay: Cytotoxicity against HGF-induced erlotinib-resistant human PC9 cells assessed as inhibition of cell growth after 72 hrs by MTT assay; format: functional, cell-based; details: PC-9, 72 h
# [2] = Inhibition of E6a/b;A20 EML4-ALK (unknown origin) expressed in human NCI-H2228 cells assessed as decrease in cell viability after 72 hrs by CellTiter-Glo luminescence assay; details: NCI-H2228, 72 h
# [3] = Cytotoxicity against human NB39 cells assessed as decrease in cell viability after 72 hrs by CellTiter-Glo luminescence assay; details: NB39, 72 h
# [4] = Inhibition of E13;A20 EML4-ALK variant (unknown origin) expressed in human NCI-H3122 cells assessed as decrease in cell viability after 72 hrs by CellTiter-Glo luminescence assay; format: cell-based; details: NCI-H3122, 72 h
# A-375 [5] = assay: animal or person; details: Mus musculus, A-375, iv, read-out: TGI
# Description: Antitumor activity against vemurafenib-resistant human A375 cells xenografted in mouse assessed as tumor growth inhibition at 150 mg/kg, iv dosed as weekly treatment in presence of selumetinib
# cells = details: Homo sapiens, BaF3, 24 h
# A-375 [6] = assay: Cytotoxicity against human A375 cells assessed as decrease in cell viability after 72 hrs by CellTiter-Glo luminescence assay; format: functional, cell-based; details: A-375, 72 h
# Bcr/Abl fusion protein [7] = molecular target: Bcr/Abl fusion protein (Homo sapiens, UniProt P00519, T315I); assay: Inhibition of imatinib-resistant BCR-ABL T315I mutant (unknown origin) expressed in mouse BA/F3 cells assessed as decrease in cell viability after 48 hrs by trypan blue exclusion assay; format: cell-based
# Bcr/Abl fusion protein [8] = molecular target: Bcr/Abl fusion protein (Homo sapiens, UniProt P00519); assay: Inhibition of BCR-ABL (unknown origin) expressed in mouse BA/F3 cells assessed as decrease in cell viability after 48 hrs by trypan blue exclusion assay; format: cell-based
# Bcr/Abl fusion protein [9] = molecular target: Bcr/Abl fusion protein (Homo sapiens, UniProt P00519, E255K); assay: Inhibition of imatinib-resistant BCR-ABL E255K mutant (unknown origin) expressed in mouse BA/F3 cells assessed as decrease in cell viability after 48 hrs by trypan blue exclusion assay; format: cell-based
# Mus musculus [10] = assay: In vivo inhibition of BCR-ABL/T315I mutant expressed in bone marrow cells transplanted in mouse assessed as level of cells expressing gatekeeper mutation at 100 mg/kg, bid measured after 15 days; format: functional; parameters: scale not given: the % may be the effect or the level left
# HCC827 = assay: Cytotoxicity against gefitinib-resistant human HCC827 cells assessed as inhibition of cell proliferation by MTS assay; format: functional, cell-based
# GIST430 = assay: Cytotoxicity against imatinib-resistant human GIST430 cells assessed as decrease in cell viability after 7 days by alamar blue assay; format: functional, cell-based; details: GIST430, 168 h
# [11] = Toxicity in iv dosed NSCLC patient dosed weekly for 3 weeks on four week cycle during phase-1 clinical trial; format: organism-based; details: human, in vivo, 504 h
# GIST48 = assay: Cytotoxicity against imatinib-resistant human GIST48 cells assessed as decrease in cell viability after 7 days by alamar blue assay; format: functional, cell-based; details: GIST48, 168 h
# NCI-H3122 = assay: Cytotoxicity against crizotinib-resistant human NCI-H3122 cells assessed as cell growth inhibition after 72 hrs by trypan blue exclusion assay; format: functional; details: NCI-H3122, 72 h
# Mus musculus [12] = assay: In vivo inhibition of BCR-ABL/T315I mutant expressed in bone marrow cells transplanted in mouse assessed as level of cells expressing gatekeeper mutation at 50 mg/kg once every 2 days measured after 28 days; format: functional; parameters: scale not given: the % may be the effect or the level left
# [13] = Toxicity in human H1650 cells expressing E746-A750 EGFR deletion mutant xenografted in mouse administered ip 3 times per week; format: organism-based; details: in vivo
# [14] = Toxicity in human H1975 cells xenografted in mouse administered ip 3 times per week; format: organism-based; details: in vivo
# [15] = Toxicity in human H3255 cells expressing L858R EGFR mutant xenografted in mouse administered ip 3 times per week; format: organism-based; details: in vivo
compound,measurement,setting,value
CO[C@H]1/C=C\C=C(/C)C(=O)NC2=CC(=O)C(NCCN(C)C)=C(C[C@@H](C)C[C@H](OC)[C@H](O)[C@@H](C)/C=C(\C)[C@@H]1OC(N)=O)C2=O [ALVESPIMYCIN],IC50,[1],10 to 30 nM
same,IC50,PC-9,10 to 30 nM
C[C@@H](Oc1cc(-c2cnn(C3CCNCC3)c2)cnc1N)c1c(Cl)ccc(F)c1Cl [CRIZOTINIB],IC50,[2],202 nM
same,IC50,[3],240 nM
same,IC50,[4],300 nM
CC(C)c1cc(-c2n[nH]c(=O)n2-c2ccc3c(ccn3C)c2)c(O)cc1O [GANETESPIB],IC50,[2],13 nM
same,IC50,[3],10 nM
same,IC50,[4],10 nM
same,inhibition in vivo at 150 mg/kg,A-375 [5],84%
same,IC50,cells,11 nM
same,IC50,A-375 [6],15 nM
COC1=C2C[C@@H](C)C[C@H](OC)[C@H](O)[C@@H](C)/C=C(\C)[C@H](OC(N)=O)[C@@H](OC)/C=C\C=C(/C)C(=O)NC(=CC1=O)C2=O [GELDANAMYCIN],IC50,Bcr/Abl fusion protein [7],1000 to 2000 nM
same,IC50,Bcr/Abl fusion protein [8],5000 nM
same,IC50,Bcr/Abl fusion protein [9],1000 to 2000 nM
Cc1ccc(NC(=O)c2ccc(CN3CCN(C)CC3)cc2)cc1Nc1nccc(-c2cccnc2)n1 [IMATINIB],Activity,Mus musculus [10],81.5%
CCNC(=O)c1noc(-c2cc(C(C)C)c(O)cc2O)c1-c1ccc(CN2CCOCC2)cc1 [LUMINESPIB],IC50,HCC827,7 nM
CC(C)c1cc(C(=O)N2Cc3ccc(CN4CCN(C)CC4)cc3C2)c(O)cc1O [ONALESPIB],IC50,GIST430,34 nM
same,MTD,[11],260 mg/m2
same,IC50,GIST48,55 nM
C=CCNc1c(O)cc2c(O)c1C[C@@H](C)C[C@H](OC)[C@H](O)[C@@H](C)/C=C(\C)[C@H](OC(N)=O)[C@@H](OC)/C=C\C=C(/C)C(=O)N2.Cl [RETASPIMYCIN HYDROCHLORIDE],GI50,NCI-H3122,76 nM
same,Activity,Mus musculus [12],0.5%
C=CCNC1=C2C[C@@H](C)C[C@H](OC)[C@H](O)[C@@H](C)/C=C(\C)[C@H](OC(N)=O)[C@@H](OC)/C=C\C=C(/C)C(=O)NC(=CC1=O)C2=O [TANESPIMYCIN],IC50,Bcr/Abl fusion protein [7],1000 to 2000 nM
same,MTD,[13],75 mg/kg
same,MTD,[14],75 mg/kg
same,MTD,[15],75 mg/kg
same,IC50,Bcr/Abl fusion protein [8],5000 nM
same,IC50,Bcr/Abl fusion protein [9],1000 to 2000 nM
CCCS(=O)(=O)Nc1ccc(F)c(C(=O)c2c[nH]c3ncc(-c4ccc(Cl)cc4)cc23)c1F [VEMURAFENIB],IC50,A-375 [6],81 nM
